Reference: patent US11160767B2, “4,4′-trans-dihydroxystilbene for use in treating cancer” (The George Washington University, a Congressionally …, priority 2017, dated 2021)

How the values were obtained:
HCT116 cells = assay: BrdU incorporation by FACS; format: cell-based, human; conditions: reduced from 46.6%, 1 to 20 μM DHS
Source text: To test whether DHS can repress DNA replication, BrdU incorporation was examined using an immunofluorescent assay. […] BrdU incorporation was tracked by fluorescence-activated cell sorting (FACS).

And-1 = target: T1, And-1 (Homo sapiens, UniProt O75717); assay: Cellular thermal shift assay, And-1; format: cell-based; conditions: HCT116 cells
T1 construct: endogenous in cells; host or cells: HCT116
Method: In order to study the mechanisms by which DHS induces down-regulation of And-1, RRM1, and RRM2 proteins, DHS-resistant HCT116 cells were generated (FIG. 9C). […] Next, it was investigated whether DHS directly binds to And-1, RRM1, or RRM2. A cellular thermal shift assay (Jafari et al., 2014) was conducted for And-1 (FIG. 9E). […] A coimmunoprecipitation (CoIP) assay was conducted to determine whether And-1, RRM1, and RRM2 interact in the same complex. The result implied that […] (FIG. 9F).

[1] = test system: HCT116 cells, U2OS cells, MDA-231/GFP cells, and PANC-1 cells; assay: Cytotoxicity across the four cancer cell lines (SAR summary); format: cell-based
Method: (§1) In vitro cytotoxicity assays. Cells growing in the Log phase were treated with various compounds at different concentrations (generally 0.137 to 100 μM) for 72 hours at 37° C. SRB assay (Vichai and Kirtikara, 2006) was performed and the absorbance at 510 nm was read with a plate reader. The proliferation rate was calculated according to the Manufacturer's instruction. The IC50 value for each compound was determined from dose-effect relationship using the CompuSyn software (version 1.0.1; CompuSyn, Inc, Paramus, N.J.) (Chou, 2006). Cell proliferating doubling time was monitored over a period of 72 hours.
Based on identification of resveratrol as a lead compound in the drug screening assays, the anti-cancer activity of synthetic resveratrol analogs (FIG. 2) was next investigated and compared to resveratrol using HCT116 cells, U2OS cells, MDA-231/GFP cells, and PANC-1 cells.
The structure activity relationship (SAR) of the derivatives of resveratrol were considered.

RRM1 and RRM2 proteins = target: T2, RRM1 and RRM2 proteins (Homo sapiens, UniProt P31350); assay: RRM1 and RRM2 protein levels by Western blot; format: cell-based; conditions: HCT116 cells
T2 construct: endogenous in cells; host or cells: HCT116
Method: Western blot analysis. Compound-treated cells were harvested and lysed. Protein extracts were subjected to electrophoresis in a SDS-polyacrylamide gel. The resolved proteins were transferred onto polyvinylidene difluoride membranes (Amersham Biosciences, Piscataway, N.J., US). After the blocking step, membranes were incubated with primary IgG antibodies, washed, and then incubated with horseradish peroxidase-conjugated anti-rabbit IgG or anti-mouse IgG secondary antibodies. Western blot signals were visualized by chemiluminescence using SuperSignal West Pico chemiluminescence reagent (Pierce, Rockford, Ill., US).
The effect of DHS treatment on And-1, RRM1, and RRM2 expression was investigated.

PANC-1 = assay: In vitro cytotoxicity (SRB assay), PANC-1; format: cell-based; conditions: Homo sapiens, 72 hours
Method: (§2) Cell lines and cell culture. HCT116, U205, PANC-1, MDA-231 cell lines were purchased from the American Type Culture Collection (Rockville, Md., US). Cells were cultured in the DMEM medium (Lonza, Basel, Switzerland) containing 10% fetal bovine serum (Gibco, Grand Island, N.Y., US), 100 Units/ml penicillin, 100 Units/mL streptomycin, […] L-glutamine (Gibco, Grand Island, N.Y., US) at 37° C. in a humidified atmosphere with 5% CO2.
(§3) In vitro cytotoxicity assays. […] SRB assay (Vichai and Kirtikara, 2006) was performed and the absorbance at 510 nm was read with a plate reader. The proliferation rate was calculated according to the Manufacturer's instruction. The IC50 value for each compound was determined from dose-effect relationship using the CompuSyn software (version 1.0.1; CompuSyn, Inc, Paramus, N.J.) (Chou, 2006). Cell proliferating doubling time was monitored over a period of 72 hours.

cancer cell lines = assay: NCI Development Therapeutics Program cell line growth; format: cell-based; conditions: NCI DTP cell lines
Method: To confirm the cell killing effect of DHS, a clonogenic colony formation assay was conducted. […] The effect of DHS on growth of cancer cell lines was analyzed using The NCI Development Therapeutics Program (DTP).

RRM2 = target: T3, RRM2 (Homo sapiens, UniProt P31350); assay: Thermal shift assay in HCT116 cells, RRM2; format: cell-based
T3 construct: endogenous in cells; host or cells: HCT116
T3 sequence (P31350 1-389): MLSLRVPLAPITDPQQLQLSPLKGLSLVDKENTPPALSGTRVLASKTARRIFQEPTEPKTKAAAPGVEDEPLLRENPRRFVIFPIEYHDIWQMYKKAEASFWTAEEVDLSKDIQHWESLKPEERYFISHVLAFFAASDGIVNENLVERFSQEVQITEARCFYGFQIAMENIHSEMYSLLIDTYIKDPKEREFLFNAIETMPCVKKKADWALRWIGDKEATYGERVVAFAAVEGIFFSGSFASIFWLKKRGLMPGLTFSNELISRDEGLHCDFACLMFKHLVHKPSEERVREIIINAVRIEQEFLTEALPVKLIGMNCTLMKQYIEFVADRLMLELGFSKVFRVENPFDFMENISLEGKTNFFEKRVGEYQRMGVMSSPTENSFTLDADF
Method: To investigate binding of DHS to RRM1 and RRM2, a thermal shift assay was performed in HCT116 cells treated with DMSO (vehicle), resveratrol, DHS, gemcitabine, or hydroxyurea (Hu). Gemcitabine is known to bind RRM1 (Plunkett et al., 1995 and Chen et al., 2011), and Hu has been reported to bind RRM2 (Thelander et al., 1985). […] DHS stabilized RRM2 protein in a dose responsive manner (5 to 20 μM DHS; FIG. 11A). To rule out nonspecific effects of DHS on RRM2, an in vitro thermal shift assay was conducted. Purified RRM1 and RRM2 were mixed and then incubated with DHS or Hu for 4 hours before performing the assay.

[2] = test system: phosphorylated histone 2AX; assay: γH2AX immunostaining; format: cell-based, human; conditions: HCT116 cells, 10 μM for 12 hours
HCT116 = assay: In vitro cytotoxicity (SRB assay), HCT116; format: cell-based; conditions: Homo sapiens, HCT-116, 72 hours
Method: as §2, §3

RPK-9 cells = assay: Combination DHS and gemcitabine, CI, RPK-9 cells; format: cell-based, human; conditions: RPK-9, in vitro, 10 μM DHS
Method: as §1
Next, the effect of combined treatment with DHS and gemcitabine on pancreatic tumor cells was investigated.

T1 sequence (O75717 whole entry): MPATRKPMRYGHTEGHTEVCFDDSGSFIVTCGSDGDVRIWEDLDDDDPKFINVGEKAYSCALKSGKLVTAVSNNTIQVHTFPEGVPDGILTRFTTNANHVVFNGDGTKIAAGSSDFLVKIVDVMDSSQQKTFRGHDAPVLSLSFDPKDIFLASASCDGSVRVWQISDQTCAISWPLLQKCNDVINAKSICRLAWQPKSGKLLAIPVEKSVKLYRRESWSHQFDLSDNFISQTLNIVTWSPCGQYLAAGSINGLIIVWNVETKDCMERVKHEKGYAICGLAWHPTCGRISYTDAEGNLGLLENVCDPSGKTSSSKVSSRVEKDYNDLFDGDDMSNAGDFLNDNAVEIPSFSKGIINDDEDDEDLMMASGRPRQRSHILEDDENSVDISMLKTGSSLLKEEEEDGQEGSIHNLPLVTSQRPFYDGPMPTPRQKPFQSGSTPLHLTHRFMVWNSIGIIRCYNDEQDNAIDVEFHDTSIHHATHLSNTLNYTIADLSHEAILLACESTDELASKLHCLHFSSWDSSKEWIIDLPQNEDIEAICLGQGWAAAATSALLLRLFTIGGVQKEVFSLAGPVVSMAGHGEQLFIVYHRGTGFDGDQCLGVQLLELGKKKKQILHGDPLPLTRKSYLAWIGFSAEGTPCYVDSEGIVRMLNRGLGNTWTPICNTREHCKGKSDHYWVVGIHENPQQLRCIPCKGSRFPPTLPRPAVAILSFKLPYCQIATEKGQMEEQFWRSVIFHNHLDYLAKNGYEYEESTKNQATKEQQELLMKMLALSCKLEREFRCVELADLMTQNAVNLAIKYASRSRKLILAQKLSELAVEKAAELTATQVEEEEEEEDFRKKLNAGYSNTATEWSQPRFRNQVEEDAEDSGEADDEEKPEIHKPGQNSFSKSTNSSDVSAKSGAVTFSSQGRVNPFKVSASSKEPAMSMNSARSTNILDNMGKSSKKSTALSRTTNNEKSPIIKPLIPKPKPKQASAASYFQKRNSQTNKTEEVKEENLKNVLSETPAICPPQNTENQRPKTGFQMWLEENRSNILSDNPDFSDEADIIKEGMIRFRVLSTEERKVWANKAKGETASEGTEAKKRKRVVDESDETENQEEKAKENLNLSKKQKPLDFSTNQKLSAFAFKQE

Oc1ccc(/C=C/c2ccc(O)cc2)cc1 [DHS, 4,4′-trans-dihydroxystilbene]
BrdU incorporation (HCT116 cells): 9.52% | Binding to And-1 (cellular thermal shift) (And-1): does not bind to And-1 | Potency relative to resveratrol according to the IC50 values [1]: 10 times | IC50 ([1]; range over four cell lines): 2.3 to 22 µM | RRM1 and RRM2 protein levels (RRM1 and RRM2 proteins): caused down-regulation of RRM1 and RRM2 proteins | IC50 (PANC-1): 22 ± 6.42 µM | Cancer cell growth (GI50) compared to resveratrol (cancer cell lines): improved effect on suppressing cancer cell growth as compared to resveratrol | RRM2 levels in thermal shift assay (binding) (RRM2): binds to RRM2 | Levels of γH2AX [2]: Increased levels of phosphorylated histone 2AX | IC50 (HCT116): 2.3 ± 0.78 µM | Resensitisation to gemcitabine (RPK-9 cells): resensitized the gemcitabine-resistant pancreatic cancer line, RPK-9, to gemcitabine
